From patent US12256737B2, “Preparation method and application of water-soluble chlorhexidine hyaluronate antibacterial agents” (Jiangnan University, priority 2022, dated 2025)
Converted amounts (≈) assume the structure as drawn.

How the values were obtained:
[1] = Water solubility test; type: physicochemical; conditions: deionized water, 25° C., 500 mg sample in 1 ml
Protocol: A method for testing the water solubility of the chlorhexidine antimicrobial disinfectant included the following steps: • 1 ml of deionized water was added to 500 mg of a sample to be tested and the sample was fully dissolved at 25° C. If an insoluble component existed, an insoluble portion suspended in the solution. After the solution was centrifuged in a centrifuge (rate of 5,000 r/min) for 5 min, the residual solid was washed 3 times in acetone and then dried in a vacuum oven for 24 h, and after the solid was completely dried, the solid was weighed and recorded as W1.
The solubility was calculated as follows: • solubility (mg/ml)=(500−W1)/1 • where W1 is the mass (mg) of the undissolved solid.

[2] = tested on: S. aureus; assay: In-vitro antimicrobial experiment (MIC, 96-well broth dilution); type: cell-based, Staphylococcus aureus; conditions: 37° C., 24 h; for MIC: LB liquid medium
Protocol: (§1) An in-vitro antimicrobial experiment of the chlorhexidine antimicrobial disinfectant was performed according to the following steps: • in a sterile super clean bench, the chlorhexidine antimicrobial disinfectants were separately prepared into 10 mg/ml solutions. A 96-well plate was taken and 100 μL of an LB liquid medium was injected into each well plate. Two rows in the same 96-well plate were respectively used as a sterile control and a drug-free control, 100 μL of the prepared chlorhexidine antimicrobial disinfectant solution was injected into the first column of the rest rows, two rows of each chlorhexidine antimicrobial disinfectant solution were injected as two groups of a parallel test, 100 μL of the uniformly mixed solution was injected into the right side well, the step was repeated until 12 columns of the wells were filled, and 100 μL of the solution was extracted from the last column and discarded. The previously cultured E. coli and S. aureus were diluted to a desired concentration of 1×10^6 CFU/mL using the LB liquid medium. 100 μL of the above-mentioned bacterial solution was injected into each well of the rows injected with the chlorhexidine antimicrobial disinfectant and the drug-free control row in the same plate. Then the plate was placed into a biochemical incubator to be cultured at 37° C. for 24 h. The plate was taken out and the change of the turbidity degree of each well was observed. […] It was observed by naked eyes that the lowest concentration of the antimicrobial agent in the clear wells where no bacteria grew was the minimum inhibitory concentration (MIC) of the tested bacteria.

[3] = tested on: E. coli; assay: as above; type: cell-based, Escherichia coli; conditions: 37° C., 24 h; for MIC: LB liquid medium
Protocol: as §1

[4] = Photostability test; type: physicochemical; conditions: fluorescent lamp
Protocol: A photostability test of the hyaluronic acid chlorhexidine, for example the hyaluronic acid chlorhexidine (HA8-CHD) prepared in example 2, was performed according to the following steps: • a sample to be detected was exposed in an illumination box provided with a fluorescent lamp for 5 days and taken on 1st day, 3rd day and 5th day. Items (appearance, mass, 1H NMR spectrum detection, and antimicrobial performance) were mainly detected according to stability, especially the appearance change of the sample was particularly required to be noticed.

[5] = tested on: L-929 mouse fibroblasts; type: cell-based
Protocol: A cytotoxicity test of the hyaluronic acid chlorhexidine, for example the hyaluronic acid chlorhexidine (HAL-CHD) of example 4, specifically included the following steps: • L-929 mouse fibroblasts were digested and the cell suspension concentration was adjusted to 0.5-1 million/mL. 100 μL of the cell suspension was added into each well of a 96-well plate with […]. The wells at the edge of the 96-well plate were filled with a culture solution. The cells were cultured overnight in a 5% CO2 incubator at 37° C. Three samples of HAL-CHD-1 (1 MIC), HAL-CHD-3 (3 MIC) and HAL-CHD-5 (5 MIC) at the concentration gradients of 10 μL or less were respectively added, and 5 replicates were prepared for each concentration gradient. At the same time, a zero-setting well (containing a culture medium and CCK-8) was set. The 96-well plate was incubated in a 5% CO2 incubator at 37° C. After 24 h, 48 h and 72 h, 10 μL of a CCK-8 reagent was added. The reaction was performed in the incubator for 3 h and the absorbance was measured using a microplate reader at the wavelength of 450 nm.

CC(=O)O.CC(=O)O.NC(=N\CCCCCC/N=C(N)/N=C(\N)Nc1ccc(Cl)cc1)/N=C(\N)Nc1ccc(Cl)cc1 [AA-CHD, chlorhexidine acetate]
Water solubility [1]: 19.05 mg/mL

[H]/N=C(\N/C(=N/[H])NCCCCCCNC(=N)NC(=N)Nc1ccc(Cl)cc1)Nc1ccc(Cl)cc1 [CHD, 1,6-bis(p-chlorophenyldiguanido)hexane]
solubility ([1]; thermodynamic from solid): 0.85 mg/mL (≈ 1680 µM)

N=C(NCCCCCCNC(=N)NC(=N)Nc1ccc(Cl)cc1)NC(=N)Nc1ccc(Cl)cc1.O=C(O)[C@H](O)[C@@H](O)[C@H](O)[C@H](O)CO.O=C(O)[C@H](O)[C@@H](O)[C@H](O)[C@H](O)CO [GA-CHD, chlorhexidine gluconate, reference compound]
MIC [2]: 700 µM | Water solubility [1]: ≥500 mg/mL | MIC [3]: 900 µM

hyaluronic acid chlorhexidine [HA4-CHD]
MIC, corresponding mass concentration [2]: 1,250 μg/mL | MIC [2]: 800 µM | MIC, corresponding mass concentration [3]: 1,667 μg/mL | MIC [3]: 1100 µM

hyaluronic acid chlorhexidine [HA8-CHD]
Water solubility [1]: ≥500 mg/mL | antimicrobial performance after illumination ([4]; after illumination): not obviously reduced | appearance versus freshly prepared sample ([4]; within 5 days of illumination): no significant difference in appearance | mass versus freshly prepared sample ([4]; within 5 days of illumination): no significant change in the mass | structure characterization (1H NMR) versus freshly prepared sample ([4]; within 5 days of illumination): no significant difference in the structure characterization

hyaluronic acid chlorhexidine [HAL-CHD]
cell viability versus control group [5]: higher that of the control group
